Results taken from patent publication US20200270588A1, “GLUCOSYL TRANSFERASE POLYPEPTIDES AND METHODS OF USE” (Syngenta Participations AG, priority 2017, published 2020).
“And” between values parts separate entries of the source, which are not always exact repeats. Equal entries are not always repeated.

How the values were obtained:
[1] = tested on: transgenic tobacco plants expressing zmBX8 (SEQ ID No 2); assay: Glass house spray test on tobacco, percent damage; assay type: in vivo; details: 30 g/ha
Method: In the present example, Zea mays BX8 or BX9 or orthologues of BX8/9, for example SEQ ID Nos. 1-59 and various herbicide-active mutations and combinations of mutations thereof (e.g. as listed in Tables 1-9) are expressed in transgenic tobacco. DNA sequences that encode these polypeptides (optimized for tobacco or, optionally, codon optimized according to a target crop such as soybean) are prepared synthetically and obtained commercially from Genewiz (South Plainfield, USA). Each sequence is designed to include a 5′ fusion with TMV omega 5′ leader (SEQ ID NO: 109). The DNA sequences are flanked at the 5′ end with XhoI and at the 3′ end with KpnI to facilitate direct cloning into a suitable binary vector for Agrobacterium-based plant transformation. […]
Three transgenic populations of about forty tobacco plants and comprising, a glucosyl transferase gene encoding either zmBX8 (SEQ ID NO 2) or zmBX9 (SEQ ID NO 1) were thus produced. […] Plants were assessed for damage and scored at 7 and 14 days after treatment (DAT).

[2] = target: T1, SEQ ID 35, mutant bx-type glucosyl transferase (Zea mays, UniProt Q8W2B7, A437P); assay: LC/MS glucosyl transferase assay (glucoside peak area), purified enzyme; assay type: biochemical; details: about 60 min, ~15 pmol enzyme, relative quantification only
T1 construct: 35; 3.66E+05; 8.20E+07; 5.96E+06; His tag; made in house
Method: (§1) In an alternative method for assaying the various enzymes, the test glucosyl transferase enzyme is reacted with substrates exactly as above except that the assay is stopped by adding an equal volume of acetonitrile. Alternatively 50 or 100 μl samples from assay reactions are added to 500 μl ethyl acetate to stop the reaction. In this case samples are then vortexed and 400 μl of the ethyl acetate partition removed, dried down, and resuspended in 100 μl 80:20 acetonitrile/water. The formation of product gluco side and/or disappearance of substrate test herbicide is then monitored directly by LC/MS. Samples are analyzed by LC-MS using an Agilent 1290 liquid chromatography system and Thermo Q-Exactive mass spectrometer. The chromatography is achieved on a Waters Acquity C18 BEH (50×2.1 mm) 1.7 μm particle size column, using a 6 minute gradient run of Water (0.2% formic acid) and Acetonitrile. The Q-Exactive is operated in positive ionisation electrospray mode, using Full scan-AIF mode, at 35,000 resolution, between 100-800 m/z. All analytes are identified from the full scan data to within at least 5 ppm accuracy of their predicted pseudo-molecular ion [M+H]^+ m/z value. In order to obtain quantitative data standard curves are run using herbicides and herbicide glucosides synthesized as standards. Where these synthetic glucosides were not available the LC/MS assay could only be used to provide relative data.
(§2) DNA sequences, optimized for E. coli codon usage, were cloned, expressed and the various proteins purified and assayed as described in the foregoing examples. Using the UDP assay (as described in examples 1, 3 and 6) the data obtained from the Zea mays bx8 w/t protein and its variants was noisy due to relatively high background rates in DMSO reagent blanks. The values reported in the table 15 were thus monitored by LC/MS as described in example 1.

[3] = tested on: SEQ ID 43, mutant bx-type glucosyl transferase; assay: as above; assay type: biochemical; details: about 60 min, ~15 pmol enzyme, nd = not detectable
Method: as §1, §2

[4] = tested on: SEQ ID 45, mutant bx-type glucosyl transferase; assay: as above; assay type: biochemical; details: about 60 min, ~15 pmol enzyme, nd = not detectable
Method: as §1, §2

T1 sequence (Q8W2B7 whole entry A437P): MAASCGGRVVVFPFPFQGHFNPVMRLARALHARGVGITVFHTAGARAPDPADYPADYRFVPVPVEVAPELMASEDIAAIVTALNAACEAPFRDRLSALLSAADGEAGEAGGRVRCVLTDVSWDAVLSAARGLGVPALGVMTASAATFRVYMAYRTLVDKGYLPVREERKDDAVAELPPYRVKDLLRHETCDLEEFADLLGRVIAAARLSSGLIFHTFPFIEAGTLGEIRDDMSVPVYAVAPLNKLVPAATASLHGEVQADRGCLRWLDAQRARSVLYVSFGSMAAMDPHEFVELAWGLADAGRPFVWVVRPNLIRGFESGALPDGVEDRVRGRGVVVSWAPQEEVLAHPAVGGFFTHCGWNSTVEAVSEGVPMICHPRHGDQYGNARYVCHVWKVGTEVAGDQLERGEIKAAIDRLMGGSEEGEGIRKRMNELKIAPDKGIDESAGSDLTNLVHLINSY

SMILES | tolerance [1] | integrated peak area of beta-glucoside product [2] | integrated peak area of beta-glucoside product [3] | integrated peak area of beta-glucoside product [4]
CON1C(=O)N(c2cc(C(F)(F)F)ccn2)C(O)[C@@H]1C (stereo partly shown) [Compound VI] | little or no tolerance | – | – | –
CN1CC(O)N(c2cc(C(F)(F)F)ccn2)C1=O (stereo not shown) [Compound V] | – | 5.96E+06 and 4.40E+06 | 3.88E+05 and 2.26E+05 | 1.56E+05 and 9.51E+04
